This is an account of results in ChEMBL document CHEMBL1141030, “Synthesis and biological evaluation of phloridzin analogs as human concentrative nucleoside transporter 3 (hCNT3) inhibitors” (Bioorg Med Chem Lett, 2009).

In general, Ki refers to the equilibrium dissociation constant of an inhibitor or competing ligand from its target. The term IC50 denotes the concentration that inhibits the measured activity by half. Higher therefore signals weaker potency in that assay.

Test [1] deals with T1, Solute carrier family 28 member 3 (Homo sapiens, UniProt Q9HAS3).
T1 sequence (Q9HAS3 whole entry): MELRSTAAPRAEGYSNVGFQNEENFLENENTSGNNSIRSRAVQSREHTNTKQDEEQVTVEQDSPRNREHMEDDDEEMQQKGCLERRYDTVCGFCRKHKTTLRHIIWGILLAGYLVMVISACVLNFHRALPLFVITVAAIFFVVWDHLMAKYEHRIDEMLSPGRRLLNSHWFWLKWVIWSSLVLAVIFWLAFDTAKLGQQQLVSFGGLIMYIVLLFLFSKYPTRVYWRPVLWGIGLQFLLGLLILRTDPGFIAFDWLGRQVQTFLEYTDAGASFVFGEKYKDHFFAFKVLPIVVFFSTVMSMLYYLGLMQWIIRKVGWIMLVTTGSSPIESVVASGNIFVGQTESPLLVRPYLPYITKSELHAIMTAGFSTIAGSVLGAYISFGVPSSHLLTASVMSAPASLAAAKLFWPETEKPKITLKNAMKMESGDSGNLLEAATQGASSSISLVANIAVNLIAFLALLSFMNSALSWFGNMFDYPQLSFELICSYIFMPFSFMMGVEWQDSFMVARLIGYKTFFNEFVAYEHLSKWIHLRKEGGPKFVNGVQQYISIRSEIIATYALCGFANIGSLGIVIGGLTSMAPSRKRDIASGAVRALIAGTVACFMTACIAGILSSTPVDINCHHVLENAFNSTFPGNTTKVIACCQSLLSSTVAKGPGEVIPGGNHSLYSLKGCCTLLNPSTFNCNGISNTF
Put plainly: Binding affinity to human recombinant CNT3 expressed in pig PK15NTD cells assessed as [3H]uridine uptake by beta-scintillation counter. The class given is cell-based.

Test [2] concerns the target T2, Equilibrative nucleoside transporter 1 (Homo sapiens, UniProt Q99808).
T2 sequence (Q99808 whole entry): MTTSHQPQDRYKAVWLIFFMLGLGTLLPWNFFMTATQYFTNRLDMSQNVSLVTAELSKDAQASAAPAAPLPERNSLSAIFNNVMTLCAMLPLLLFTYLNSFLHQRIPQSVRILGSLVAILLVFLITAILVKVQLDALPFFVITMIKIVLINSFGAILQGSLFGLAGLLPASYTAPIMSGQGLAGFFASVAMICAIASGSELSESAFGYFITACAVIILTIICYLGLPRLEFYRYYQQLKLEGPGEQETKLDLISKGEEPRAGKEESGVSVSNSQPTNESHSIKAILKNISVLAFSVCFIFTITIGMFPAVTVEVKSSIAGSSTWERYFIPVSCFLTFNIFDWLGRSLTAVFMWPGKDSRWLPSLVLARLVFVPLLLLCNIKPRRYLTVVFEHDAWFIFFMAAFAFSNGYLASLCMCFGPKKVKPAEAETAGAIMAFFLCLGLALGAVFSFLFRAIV
The experiment in a line: Binding affinity to human ENT1 assessed as [3H]uridine uptake by flow cytometry.

Test [3] has as its target T3, Sodium/nucleoside cotransporter 2 (Homo sapiens, UniProt O43868).
T3 sequence (O43868 whole entry): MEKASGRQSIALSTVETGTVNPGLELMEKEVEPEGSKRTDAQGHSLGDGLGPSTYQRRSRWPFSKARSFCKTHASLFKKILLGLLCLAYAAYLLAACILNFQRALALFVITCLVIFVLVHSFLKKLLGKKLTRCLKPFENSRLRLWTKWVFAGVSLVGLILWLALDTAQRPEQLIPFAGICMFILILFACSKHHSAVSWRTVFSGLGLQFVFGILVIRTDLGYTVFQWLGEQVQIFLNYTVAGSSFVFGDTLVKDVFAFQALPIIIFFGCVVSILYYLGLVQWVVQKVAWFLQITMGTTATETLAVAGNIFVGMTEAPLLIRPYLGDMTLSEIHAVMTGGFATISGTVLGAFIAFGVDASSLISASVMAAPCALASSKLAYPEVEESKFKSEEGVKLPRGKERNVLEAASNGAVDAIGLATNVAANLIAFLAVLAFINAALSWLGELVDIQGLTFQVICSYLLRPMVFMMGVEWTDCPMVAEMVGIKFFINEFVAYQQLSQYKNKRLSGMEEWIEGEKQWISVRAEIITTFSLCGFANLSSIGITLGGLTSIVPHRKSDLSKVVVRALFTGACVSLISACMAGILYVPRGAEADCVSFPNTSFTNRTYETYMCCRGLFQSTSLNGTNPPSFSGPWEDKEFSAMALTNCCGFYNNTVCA
Put plainly: Inhibition of human CNT2.

For test [4], the target named is T4, Sodium/nucleoside cotransporter 1 (Homo sapiens, UniProt O00337).
T4 sequence (O00337 whole entry): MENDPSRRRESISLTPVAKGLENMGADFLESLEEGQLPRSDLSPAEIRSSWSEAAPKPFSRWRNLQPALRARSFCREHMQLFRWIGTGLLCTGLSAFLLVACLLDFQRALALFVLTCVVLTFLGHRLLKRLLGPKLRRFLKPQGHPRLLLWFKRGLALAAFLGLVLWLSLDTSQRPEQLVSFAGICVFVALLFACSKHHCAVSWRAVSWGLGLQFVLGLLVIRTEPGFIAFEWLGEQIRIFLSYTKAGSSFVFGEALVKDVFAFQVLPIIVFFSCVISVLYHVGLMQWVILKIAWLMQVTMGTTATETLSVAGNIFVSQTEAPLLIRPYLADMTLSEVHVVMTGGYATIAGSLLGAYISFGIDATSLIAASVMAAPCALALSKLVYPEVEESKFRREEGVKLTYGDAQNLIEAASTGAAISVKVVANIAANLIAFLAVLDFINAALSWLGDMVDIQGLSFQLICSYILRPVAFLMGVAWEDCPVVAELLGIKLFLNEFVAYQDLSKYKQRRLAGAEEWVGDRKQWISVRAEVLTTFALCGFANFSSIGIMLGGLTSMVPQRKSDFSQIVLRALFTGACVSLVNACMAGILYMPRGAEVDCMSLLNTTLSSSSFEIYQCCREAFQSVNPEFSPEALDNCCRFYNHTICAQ
The experiment in a line: Inhibition of human CNT1.

As for `CC(=O)c1ccc(O)cc1O`, in test [1], the Ki was more than 100 µM. `CC(=O)c1c(O)cccc1O`: the inhibition constant Ki in test [1] was more than 100 µM. On to `Oc1ccc(CCCc2c(O)cc(O)cc2O)cc1`, for which the Ki in test [1] turned out to be 30 µM. In the case of `CC(=O)c1c(O)cccc1O[C@@H]1O[C@H](CO)[C@@H](O)[C@H]1O`, the Ki in test [1] came to 42.1 µM. Regarding `CC(=O)c1cc(O)cc(O[C@@H]2O[C@H](CO)[C@@H](O)[C@H]2O)c1`, in test [1], the Ki was more than 100 µM. On to `CC(=O)c1c(O)cccc1O[C@H]1O[C@H](CO)[C@@H](O)[C@H](O)[C@H]1O`, for which the inhibition constant (Ki) in test [1] turned out to be 53.9 µM. Turning to `CC(=O)c1c(O)cc(O)cc1O[C@H]1O[C@H](CO)[C@@H](O)[C@H](O)[C@H]1O`, the inhibition constant Ki in test [1] amounted to 30.8 µM. Take `CC(=O)c1cc(O)cc(O[C@H]2O[C@H](CO)[C@@H](O)[C@H](O)[C@H]2O)c1`: the inhibition constant (Ki) in test [1] is more than 100 µM. Turning to `CC(=O)c1ccc(O[C@H]2O[C@H](CO)[C@@H](O)[C@H](O)[C@H]2O)cc1O`, in test [1], the inhibition constant Ki is more than 100 µM. `O=C(CCc1ccc(O)cc1)c1c(O)cc(O)cc1O[C@@H]1O[C@H](CO)[C@@H](O)[C@H]1O`: the values for the Ki in test [1] and in test [2] were 2.88 µM and more than 1000 µM, respectively. As to `O=C(CCc1ccccc1)c1ccccc1O[C@@H]1O[C@H](CO)[C@@H](O)[C@H]1O`, in test [1], the inhibition constant Ki was more than 100 µM. With `CC(=O)c1cc(O)cc(O)c1`, in test [1], the Ki is more than 100 µM.

Turning to `O=C(CCc1ccc(O)cc1)c1c(O)cc(O[C@@H]2O[C@H](CO)[C@@H](O)[C@H](O)[C@H]2O)cc1O`, the inhibitory constant (Ki) in test [1] is more than 100 µM. In the case of `CC(=O)c1c(O)cc(O)cc1O[C@@H]1O[C@H](CO)[C@@H](O)[C@H]1O`, in test [1], the Ki was determined as 12.4 µM. In the case of `OC[C@H]1O[C@@H](Oc2cc(O)cc(O)c2CCCc2ccc(O)cc2)[C@H](O)[C@@H](O)[C@@H]1O`, the inhibitory constant (Ki) in test [1] worked out at 12.3 µM. On the same count and under the same terms, for `CC(=O)c1c(O)cc(O)cc1O` [2,4,6-TRIHYDROXYACETOPHENONE] the value was more than 100 µM. Turning to `O=[N+]([O-])c1ccc(CSc2ncnc3c2ncn3[C@@H]2O[C@H](CO)[C@@H](O)[C@H]2O)cc1` [NITROBENZYLMERCAPTOPURINE RIBONUCLEOSIDE], the inhibition constant Ki in test [1] amounted to 88 µM. The same measure, in the same setting: for `O=C(CCc1ccc(O)cc1)c1c(O)cc(O)cc1O` [PHLORETIN] the value was 32.3 µM. For the compound `O=C(CCc1ccc(O)cc1)c1c(O)cc(O)cc1O[C@@H]1O[C@H](CO)[C@@H](O)[C@H](O)[C@H]1O` [PHLORIZIN], the IC50 in test [3] turned out to be 100 µM; in test [4], 250 µM. Also, the figures for the Ki in test [1] and in test [2] were 16 µM and more than 1000 µM, respectively.
